Experimental findings from patent US20160136118A1, “COMPOSITIONS AND METHODS FOR THE TREATMENT OF A COMMON COLD AND SYMPTOMS THEREOF” (3E THERAPEUTICS CORPORATION, priority 2007, published 2016) are described below.

For experiment [1], the system named is human patients exposed to cat allergen. Nature of the experiment: Single-blind study, exposure to cat allergen after contrast media pretreatment (Example 11). In kind it is in vivo. The note with it: for Reactions on exposure to cat allergen: allergen diluted 1:10. The method, then: A single-blind study was conducted using three human patients. The patients were exposed to cat allergen at three different dilutions, 1:1,000, 1:100, and 1:10. […] Exposure to the 1:100 dilution of allergen caused a mild reaction in all of the patients. Exposure to the 1:10 dilution of allergen caused moderate reactions in all of the patients, with one patient in particular requiring some treatment for the reaction.
Patients were then pre-treated with VISIPAQUE®320 (iodixanol).
Patients were pre-treated with Iotrolan 280.
Table 1 summarizes the results and symptoms after exposure to a 1:10 dilution of cat allergen both with and without pretreatment with VISIPAQUE®320 or Iotrolan 280.

For experiment [2] the test system is unchanged. Description: Single-blind study, cat allergen at three dilutions with or without pretreatment, symptoms per patient (Example 12). Further details: Drip / Congestion / Itch: scale not given here. In kind it is in vivo. The note with it: for Itch / Sneezes / Congestion / Drip: pretreatment. The method, then:
A single-blind study was conducted using three human patients. Patients were pre-treated with VISIPAQUE®320 (Iodixanol) or not treated with contrast media. The patients were exposed to cat allergen at three different dilutions, 1:1000, 1:100, and 1:10. Patient symptoms of itch, drip, congestion, and sneeze were assessed.
Tables 2-4 show the results and symptoms after exposure to the indicated dilution of cat allergen both with and without pretreatment with VISIPAQUE®320.
In a similar study, patients were treated with Iotrolan 280 prior to exposure to 1:10, 1:100, or 1:1000 dilutions of cat allergen.

In experiment [3] the test system is histamine, dust allergen and grass allergen injected into patient's arm. Description: Skin reaction to injected histamine, dust allergen and grass allergen after topical pretreatment of the arm (Example 13). In kind it is in vivo, human. On the procedure:
FIG. 1 is a photograph showing the response of the patient to 6 injections. Three substances were each injected twice at two different locations, for a total of 6 injections. Each substance was injected at one location that had been pretreated with CHOLOGRAFIN® meglumine and at a second location that had not been pretreated. CHOLOGRAFIN® meglumine, which comprises 80% Iodipamide in emollient, was applied topically to part of a patient's arm. Forty five minutes after application of the CHOLOGRAFIN® meglumine, each of the three substances was injected into the two different locations on the arm, one pretreated and one that was not pretreated. The three substances were histamine, dust allergen, and grass allergen. Referring to FIG. 1, the two histamine injections went into the upper level of the arm, the two dust allergen injections went into the middle level of the arm, and the two grass allergen injections went into the lower level of the arm. FIG. 1 is a photograph showing the resulting reactions taken 2.5 hours after the injections. […] The reactions of upper, middle and lower levels of the arm on the untreated sides were rated with scores of 3+, 4+, and 4+, respectively. The reactions of the upper, middle and lower levels of the arm on the pretreated sides were rated with scores of 1+, 2+, and 2+, respectively.

Where [4] appears, read: 1:10 dilution of cat allergen, pretreatment, three human patients.
[5] abbreviates: Patient 1, 1:10 concentration cat allergen.
Setting [6] is: Patient 1, 1:100 concentration cat allergen.
Where [7] appears, read: Patient 1, 1:1000 concentration cat allergen.
Where [8] appears, read: Patient 2, 1:10 concentration cat allergen.
Setting [9] is: Patient 2, 1:100 concentration cat allergen.
The mark [10] stands for this setting: Patient 2, 1:1000 concentration cat allergen.
Where [11] appears, read: Patient 3, 1:10 concentration cat allergen.
[12] abbreviates: Patient 3, 1:100 concentration cat allergen.
[13] abbreviates: Patient 3, 1:1000 concentration cat allergen.

As to `CN(C(=O)CC(=O)N(C)c1c(I)c(C(=O)NC(CO)C(O)CO)c(I)c(C(=O)NC(CO)C(O)CO)c1I)c1c(I)c(C(=O)NC(CO)C(O)CO)c(I)c(C(=O)NC(CO)C(O)CO)c1I` (centres unmarked) [Iotrolan 280, Iotrolan], the “Reaction to the cat allergen compared to the reaction without pretreatment” value in experiment [1] (1:10 dilution of cat allergen) is “decreased reaction”. For the same molecule, in experiment [1] (setting [4]), the Itch is recorded as 0 and the Sneezes is listed as 2×. Further, in experiment [1] (after pretreatment), the “Reactions on exposure to cat allergen” value is “mild reactions”.
With `CC(=O)N(CC(O)CN(C(C)=O)c1c(I)c(C(=O)NCC(O)CO)c(I)c(C(=O)NCC(O)CO)c1I)c1c(I)c(C(=O)NCC(O)CO)c(I)c(C(=O)NCC(O)CO)c1I` (centres unmarked) [Visipaque 320, iodixanol], the “Symptoms in response to the cat allergen compared to the reaction without pretreatment” value in experiment [2] (1:1000, 1:100, 1:10 dilutions, three human patients) is recorded as “decreased symptoms”. Moreover, the Itch in experiment [2] (setting [5]), in experiment [2] (setting [6]), in experiment [2] (setting [7]), in experiment [2] (setting [8]), in experiment [2] (setting [9]) and in experiment [2] (setting [10]) was 0 each time. Also, the Itch in experiment [2] (setting [12]) and in experiment [2] (setting [13]) was 0 in each case. Also, the Sneezes in experiment [2] (setting [5]) turned out to be 2×; in experiment [2] (setting [6]), 0 ×; in experiment [2] (setting [7]), 0 ×; in experiment [2] (setting [8]), 0 ×; in experiment [2] (setting [9]), 0 ×; in experiment [2] (setting [10]), 0 ×. In addition, the Sneezes is given as 2× in experiment [2] (setting [11]), 0 × in experiment [2] (setting [12]), 0 × in experiment [2] (setting [13]) and 2× in experiment [1] (setting [4]). The Congestion in experiment [2] (setting [6]), in experiment [2] (setting [7]), in experiment [2] (setting [8]), in experiment [2] (setting [9]), in experiment [2] (setting [10]) and in experiment [2] (setting [12]) was 0 in each case. For the same molecule, the Congestion in experiment [2] (setting [13]) is listed as 0. For the same molecule, the Drip in experiment [2] (setting [6]), in experiment [2] (setting [7]), in experiment [2] (setting [8]), in experiment [2] (setting [9]), in experiment [2] (setting [10]) and in experiment [2] (setting [11]) was 0 throughout. Moreover, in experiment [2] (setting [12]), the Drip was 0. Besides, the “Reaction to the cat allergen compared to the reaction without pretreatment” value in experiment [1] (1:10 dilution of cat allergen) was “decreased reaction”. Further, the “Reactions on exposure to cat allergen” value in experiment [1] (after pretreatment) is given as “mild reactions”. In addition, in experiment [1] (cat allergen diluted 1:100, after pretreatment), the “Symptoms on exposure to cat allergen” value is on record as “not associated with any symptoms”.
As to `O=C(CCCCC(=O)Nc1c(I)cc(I)c(C(=O)O)c1I)Nc1c(I)cc(I)c(C(=O)O)c1I` [iodipamide, Iodipamide], the “Reaction to histamine, dust allergen and grass allergen, pretreated versus untreated side” value in experiment [3] was “decreased reaction”.
